The data set is described as follows: nepafenac concentration in ocular tissues of rabbits following a single topical dose. The conditions noted are these: topical ocular administration of 0.3% nepafenac, simple formulation without penetration enhancers. It is filed as in vivo. How it is done: The estimated concentration within the anterior chamber following topical ocular administration of 0.3% nepafenac to rabbits is 24 μM (see FIGS. 1 and 2). This concentration, achieved using a simple formulation without penetration enhancers, is in excess of the parent compounds' COX I and COX II IC50s. This enhanced bioavailability provides a significant advantage and is unexpected over other non-steroidal anti-inflammatory drugs as well as amide derivatives of non-steroidal anti-inflammatory drugs. The compounds disclosed in the '034 patent, the contents of which are incorporated herein by reference, are ester and amide derivatives of 3-benzoylphenylacetic acid.

Structures are written as SMILES.

`NC(=O)Cc1cccc(C(=O)c2ccccc2)c1N` [nepafenac, 2-Amino-3-benzoyl-phenylacetamide]: the “estimated concentration within the anterior chamber” value was 24 µM.
